Data on one compound can be found in patent EP4803520A1, “COMPOUND CONTAINING FUSED BICYCLIC RING, PHARMACEUTICAL COMPOSITION, AND USE THEREOF” (priority 2023, dated 2025).

A value given as a limit tells only on which side of the number the result lay.

The test system of one data set is MDA-MB-436 cells. The data set is described as follows: Assay on inhibitory activity for MDA-MB-436 cell proliferation (CCK-8). The note with it: Homo sapiens, MDA-MB-436; 168 h of incubation, CCK-8, absorbance at 450 nm. It is filed as cell-based. How it is done: MDA-MB-436 cells in a good growth state were collected into a centrifuge tube, adjusted to a cell density of 2 × 10^4 cells/mL using a complete medium (DMEM high glucose + 10% FBS + 1× insulin-transferrin-selenium (ITS-G) + 16 µg/mL reduced glutathione), and seeded in a 96-well plate (100 µL/well), and the plate was incubated overnight in a cell incubator. Compounds were added using a pipettor, such that the final concentrations of the compounds were 400 nM-0.02 nM. The wells were set in duplicate, and a control well was set. After 168 h of incubation in the cell incubator, the assay reagent CCK-8 (manufacturer: Dojindo Laboratories, Beijing; 10 µL/well) was added. After 1.5 h of incubation in the cell incubator, the absorbance values were measured at 450 nm on a PerkinElmer Envision microplate reader. […] Inhibitory activity results for DA-MB-436 cell proliferation of compounds

A further data set deals with T1, PARP2 (Homo sapiens, UniProt Q9UGN5).
T1 construct: purchased BPS 80502
The data set is described as follows: PARP2-Tracer activity assay (FP method). The format is binding. The settings on record: PARP2 10 nM, Tracer 2.5 nM. As for the experimental part:
(§1) The enzyme inhibition activity of the compounds against PARP1/2-Tracer was tested using the FP method. First, 100 nL of inhibitors with a final concentration of 1% DMSO were transferred to a 384-well reaction plate (Corning 4514) using Echo655. Then, 5 µL of a PARP1/2 (BPS, Cat. No. 80501/80502) enzyme solution was added to each well, followed by centrifugation at 1000 RPM for 1 min at room temperature, and the reaction was allowed to proceed for 10 min. Subsequently, 5 µL of a Tracer (ICE, Cat. No. 001315-009) solution was added to each well, followed by centrifugation at 1000 RPM for 1 min at room temperature, and the reaction was allowed to proceed for 60 min. PARP1/2 and Tracer were prepared in a buffer containing 50 mM Tris (pH 8.0), 10 mM MgCl2, 150 mM NaCl, and 0.001% Triox-100, with final concentrations of 5/10 nM and 2.5 nM, respectively. Finally, the FP signal was read using BMG (PHERAstar FSX), and the IC50 values and nonlinear regression curve fitting were obtained using GraphPad Prism software.

The target in data set [1] is T2, PARP1 (Homo sapiens, UniProt P09874). The data set is described as follows: Assay on PARP1 protein activity (chemiluminescence assay kit).
Description: A chemiluminescence assay kit (BPS, Cat. No. 80551) was used. 50 µL of 1× histone was added to a 96-well plate and incubated overnight at 4 °C. Each well was washed 3 times with 200 µL of a PBST buffer (containing 0.05% Tween-20), and the liquid was removed from the plate. 200 µL of blocking buffer 3 was added, and the plate was blocked at room temperature for 60-90 min. The blocking solution was discarded, and the plate was washed 3 times with a PBST buffer, followed by the removal of the liquid from the plate. 25 µL of a master mix (2.5 µL of a 10× PARP buffer + 2.5 µL of a 10× biotinylated substrate assay mix + 5 µL of activated DNA (5×) + 15 µL of water) and 5 µL of a 1× PARP buffer were added to each well. Compounds were sprayed using a nanoliter pipettor in the compound groups. 20 µL of a 1× PARP buffer was added to the blank control group, and 20 µL of PARP 1 enzyme (2.4 ng/mL) was added to the other wells to initiate the reaction. The plate was incubated at room temperature for 1 h. 50 µL of streptavidin-HRP (diluted 1:50 in blocking buffer 3) was added to each well, and the plate was incubated at room temperature for 30 min. The plate was washed three times with PBST, and the liquid was removed from the plate. 50 µL of ELISA ECL substrate A and 50 µL of ELISA ECL substrate B were mixed on ice before use, and 100 µL were added to each well.
A further data set can be described thus: Mouse pharmacokinetics. The format is in vivo. The settings on record: plasma, ICR mice. An excerpt: A non-compartmental model was used for fitting to calculate relevant pharmacokinetic parameters, and the results are shown in Table 3. Table 3. Pharmacokinetic results of compounds in mice
A further data set is described as follows: Rat pharmacokinetics. It is filed as in vivo. The note with it: plasma, SD rats. An excerpt: A non-compartmental model was used for fitting to calculate relevant pharmacokinetic parameters, and the results are shown in Table 4. Table 4. Pharmacokinetic results of compounds in rats
Data set [2] deals with MDA-MB-436 BRCA1m human breast cancer nude mouse subcutaneous xenograft tumor model. Kind of data set: Pharmacodynamic evaluation in nude mouse subcutaneous xenograft tumor model. The settings on record: ig 4 mg/kg once daily, after 22 days of administration. It is filed as in vivo, nude mice. As for the experimental part: MDA-MB-436 BRCA1m human breast cancer cells (5 × 10^6 cells/mouse) were inoculated subcutaneously into the right axilla of SPF-grade female nude mice. When the mean tumor volume reached about 150 mm^3, the animals were grouped.
The day of grouping was defined as day 0. The compound of the present application was intragastrically administered once on day 0, and was then administered once daily at a dose of 4 mg/kg with a vehicle of DMSO:PEG400 = 10:90 (v/v). The tumor volume and body weight were measured twice to thrice every week, and the data were recorded. The general behavior of the mice was observed and recorded every day. After the experiment was completed, the tumors were extracted, weighed, and photographed.
The detection parameters and the calculation formulas are as follows: Tumor volume TV (mm^3) = 1/2 × (a×b^2), [formula] where a represents the long diameter of the tumor, and b represents the short diameter of the tumor. Relative tumor volume RTV = TVt /TV0 , [formula] wherein TV0 represents the tumor volume on day 0, and TVt represents the tumor volume at each measurement. Relative tumor proliferation rate T/C (%) = (TRTV/CRTV) × 100%, [formula] where TRTV represents RTV of the treatment group, and CRTV represents RTV of the vehicle control group. […]

In data set [3] the target is T2, PARP1. The data set is described as follows: PARP1-Tracer activity assay (FP method). The format is binding. Details: purchased BPS 80551. How it is done:
as §1

Data set [4] in a line: Experiment on brain distribution in rats. The note with it: rat, po. It is filed as in vivo, SD rats.

T2 sequence (P09874 whole entry): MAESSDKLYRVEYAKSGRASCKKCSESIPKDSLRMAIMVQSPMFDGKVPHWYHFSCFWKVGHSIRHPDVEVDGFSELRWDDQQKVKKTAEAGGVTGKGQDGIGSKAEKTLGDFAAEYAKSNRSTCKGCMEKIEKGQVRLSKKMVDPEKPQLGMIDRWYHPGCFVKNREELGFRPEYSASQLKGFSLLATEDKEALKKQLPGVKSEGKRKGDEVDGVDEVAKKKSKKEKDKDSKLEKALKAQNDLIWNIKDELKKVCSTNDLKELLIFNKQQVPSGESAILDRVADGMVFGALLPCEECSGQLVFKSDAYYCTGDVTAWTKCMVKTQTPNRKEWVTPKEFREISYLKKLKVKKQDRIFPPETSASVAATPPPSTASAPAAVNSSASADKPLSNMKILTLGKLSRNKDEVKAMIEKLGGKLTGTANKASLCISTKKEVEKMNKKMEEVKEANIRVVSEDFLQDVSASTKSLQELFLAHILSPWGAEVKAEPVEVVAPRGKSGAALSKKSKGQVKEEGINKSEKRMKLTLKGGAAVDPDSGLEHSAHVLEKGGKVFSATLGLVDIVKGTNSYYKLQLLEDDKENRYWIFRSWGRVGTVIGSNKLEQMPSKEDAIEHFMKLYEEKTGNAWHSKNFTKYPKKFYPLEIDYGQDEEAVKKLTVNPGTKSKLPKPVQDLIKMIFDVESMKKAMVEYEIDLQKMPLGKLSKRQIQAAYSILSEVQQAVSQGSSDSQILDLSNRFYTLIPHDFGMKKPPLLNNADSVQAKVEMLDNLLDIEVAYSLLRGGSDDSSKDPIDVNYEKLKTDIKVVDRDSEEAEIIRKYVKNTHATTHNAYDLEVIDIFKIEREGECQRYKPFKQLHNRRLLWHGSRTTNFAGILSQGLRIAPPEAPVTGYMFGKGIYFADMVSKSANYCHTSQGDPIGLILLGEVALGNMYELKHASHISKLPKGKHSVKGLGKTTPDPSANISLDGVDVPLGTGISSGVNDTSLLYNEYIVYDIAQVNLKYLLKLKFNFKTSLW
T1 sequence (Q9UGN5 whole entry): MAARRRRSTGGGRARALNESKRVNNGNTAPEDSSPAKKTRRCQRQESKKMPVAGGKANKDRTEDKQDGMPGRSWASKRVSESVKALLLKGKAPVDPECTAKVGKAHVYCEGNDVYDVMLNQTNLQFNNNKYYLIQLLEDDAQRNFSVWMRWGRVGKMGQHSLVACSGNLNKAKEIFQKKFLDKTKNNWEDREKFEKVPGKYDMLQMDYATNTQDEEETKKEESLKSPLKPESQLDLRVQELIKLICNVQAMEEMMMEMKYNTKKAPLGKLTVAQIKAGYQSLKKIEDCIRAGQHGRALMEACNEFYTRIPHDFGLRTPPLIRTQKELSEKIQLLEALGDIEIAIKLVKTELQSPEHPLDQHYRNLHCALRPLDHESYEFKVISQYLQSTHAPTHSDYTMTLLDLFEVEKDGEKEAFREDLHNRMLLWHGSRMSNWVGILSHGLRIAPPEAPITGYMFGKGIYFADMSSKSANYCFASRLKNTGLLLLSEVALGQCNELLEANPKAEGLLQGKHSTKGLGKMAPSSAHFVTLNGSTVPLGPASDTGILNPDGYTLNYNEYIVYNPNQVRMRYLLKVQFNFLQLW

Regarding `CNC(=O)n1cc2c(n1)CN([C@H]1CN(Cc3ccc4cc(C(F)(F)F)c(=O)[nH]c4c3F)[C@H]1C)C2` [Compound 55], the IC50 – broadly, the midpoint of a concentration-inhibition curve – was at most 50 nM with MDA-MB-436 cells; above 500 nM on PARP2; below 1 nM on PARP1 [1]; 3.1 nM on PARP1 [3] (FP method, PARP1 5 nM, Tracer 2.5 nM). In addition, the AUC(0-t) (usually exposure summed from dosing to a finite time, without extrapolation to infinity) in the data set “Mouse pharmacokinetics” (iv 0.1 mg/kg) is 6650 ng·h/mL; in “Mouse pharmacokinetics” (po, ig 0.1 mg/kg) it was 5490 ng·h/mL; in “Rat pharmacokinetics” (iv 0.1 mg/kg), 326 ng·h/mL; in “Rat pharmacokinetics” (po, ig 0.5 mg/kg) it was 1710 ng·h/mL. Also, the half-life (in general, the time in which the quantity being followed falls by half) in the data set “Mouse pharmacokinetics” (iv 0.1 mg/kg) was 13.6 h; in “Rat pharmacokinetics” (iv 0.1 mg/kg) it was 4.74 h; in “Rat pharmacokinetics” (po, ig 0.5 mg/kg), 4.76 h. For the same compound, the Cmax (commonly the highest concentration seen after dosing) in the data set “Mouse pharmacokinetics” (po, ig 0.1 mg/kg) stood at 331 ng/mL; in “Rat pharmacokinetics” (po, ig 0.5 mg/kg), 208 ng/mL. The tumor inhibition rate entry in data set [2] is “up to 97%”. Besides, the “PARP2/PARP 1 selectivity” value on PARP1 [3] (ratio of PARP2 IC50 to PARP1 IC50, FP method) was above 200 fold. Besides, the Kp at 8 h in data set [4] (brain, 2 mg/kg, read-out: Brain-to-blood ratio) is 0.082. Besides, in data set [4] (SD rats, ig 2 mg/kg, brain homogenate), the AUC – broadly, concentration integrated over time – at 8 h is 453 ng·h/mL. Moreover, in data set [4] (SD rats, ig 2 mg/kg, plasma), the area under the curve AUC(0-t) at 8 h was determined as 5530 ng·h/mL.
